From PubChem BioAssay (NCI)
Where “and” joins values, the source holds several entries; their conditions need not be identical. Equal entries are not always repeated.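 Following 48 hours of exposure in 96-well plates, responses at five concentrations were used to interpolate endpoints linearly. The concentration for 50% growth inhibition is given as GI50. TGI: total growth inhibition.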

Assays:
Experiment in all cases: NCI anticancer screen, dose series, 48 h
[1] = test system: CCRF-CEM leukemia
[2] = test system: HS 578T breast
[3] = test system: NCI-H522 lung
[4] = test system: SF-268 CNS
[5] = test system: DU-145 prostate
[6] = test system: EKVX NSCLC
[7] = test system: HT29 colon
[8] = test system: SF-295 CNS
[9] = test system: HCT-116 colon
[10] = test system: NCI-H460 lung

Compound	GI50 [1] [µM]	TGI [1] [µM]	GI50 [2] [µM]	TGI [2] [µM]	GI50 [3] [µM]	TGI [3] [µM]	GI50 [4] [µM]	TGI [4] [µM]	GI50 [5] [µM]	TGI [5] [µM]	GI50 [6] [µM]	TGI [6] [µM]	GI50 [7] [µM]	TGI [7]	GI50 [8] [µM]	TGI [8] [µM]	GI50 [9] [µM]	TGI [9] [µM]	GI50 [10] [µM]	TGI [10] [µM]
CNc1ccc(N=Nc2cccc3ncccc23)cc1	> 24	> 100	24.7	> 100	43.7	> 100	39.3	> 100	> 100	> 100	3.62	> 100	37.5	> 100 µM	17.8	> 100				
COc1cccc(C2CC(=O)Nc3cc4c(cc32)CCC4)c1OC (stereo not given)	2.28	7.08	3.04	34.8	3.67	18.4	5.34	27.5	3.48	16.1			3.26	12.6 µM	2.83	12.4	3.61	16	3.16	12.3
NC(=O)c1ncn(C2OC(CO)C(O)C2O)c1NC(=S)NC(=O)c1ccccc1 (stereo not given)		> 100				> 100		> 100				> 100		> 100 µM		> 100		> 100		> 100
CC(=O)[O-].O=[N+]([O-])c1ccc([O-])c(C=NCCN=Cc2cc([N+](=O)[O-])ccc2[O-])c1.[Mn+3]	33.4	> 100			31.4	93.3	> 100	> 100					> 100	> 100 µM	> 100	> 100	> 100	> 100	> 100	> 100
C1=CC=C2NCCSCCNC3=CC=CC=CC3=NCCSCCN=C2C=C1		> 100				> 100		> 100				> 100		> 100 µM		> 100		> 100		> 100
CCCCCCCCCCCCCCCCCCNC(=O)[C@H]1CSC(c2ccc(F)c(OC)c2)N1 (stereo not given in full)	0.284	1.74	1.24	2.97			0.908	1.84	1.79	> 50	0.813	1.6	1.03	2.12 µM	2.14	13.7	0.835	1.64	0.211	0.824
COc1cc(/C=C2/C(=O)N(C(=O)c3ccccc3O)N=C2C)ccc1O		> 100		> 100				> 100		> 100		> 77.7		> 100 µM		> 100		> 100		> 100
N#CC1=C(N)NC(=S)C(C#N)C12Nc1ccccc1S2 (stereo not given)					16.2	35.6	14.8	42.9			0.793	8.04	29.3	77.7 µM	19.5	47.8	18.5	41.7	16.7	> 100
O=C1[C@H]2ON(c3ccccc3)C(c3cccc([N+](=O)[O-])c3)[C@H]2C(=O)N1c1ccc(Cc2ccc(N3C(=O)[C@@H]4ON(c5ccccc5)C(c5cccc([N+](=O)[O-])c5)[C@@H]4C3=O)cc2)cc1 (stereo not given in full)		> 100				> 100		> 100				> 100		> 100 µM		> 100		> 100		> 100
CCOC(=O)/N=c1\ssc(Cl)c1Cl	0.646	> 100			3.87	95.9	17.4	41.6	4.72	19.4	19.9	42.7	4.43	> 100 µM	16.7	33.2	3.35	> 100	21.3	54.3
CCCCOP1(=O)C=CC(Cl)=C(C)C1 (stereo not given)		35						89.2				> 100		45 µM		39.6		46.9		80.8
CC(C)(C)c1cc(C(=O)O)c(C(c2ccccc2)c2ccccc2C(=O)O)c(C(=O)O)c1 (stereo not given)		> 100				5.16		> 100				> 100		> 100 µM		> 100		> 100		> 100
CCCCCCCCCCCCNC(=O)[C@H]1CSC(c2ccsc2)N1 (stereo not given in full)			1.17	2.45	5.14	11.8	0.613	1.45	0.979	1.82	0.991	1.85	0.995	1.83 µM	0.926	1.68	0.908	1.71	0.986	1.84
C=C1c2ccccc2N(S(=O)(=O)c2ccc(C)cc2)C12CCCCC2		> 100				> 100		> 100				> 100		> 100 µM		> 100		> 100		> 100
CN1C=C(C(N)=O)C2CC(O)[C@@](NC(=O)CS(N)(=O)=O)(C(=O)O)C2C1 (stereo not given in full)		> 100				23.9		10.3				> 42.6		10.6 µM		6.97		18.7		12.6
O=C1OC(c2ccc(Cl)c3ccccc23)c2ccccc21 (stereo not given)		> 100				> 100		> 100				> 100		> 100 µM		> 100		> 100		> 100
BrC(Br)([P+](c1ccccc1)(c1ccccc1)c1ccccc1)[P+](c1ccccc1)(c1ccccc1)c1ccccc1						28.7		> 100				63		31.9 µM		> 100		46		> 100
CCCC/C=C1\CCC(CN2CCCC2)C1=O (stereo not given)		25						29.9						31.5 µM		36.4		27.3		38.2
O=c1ncccn1C1OC(CO)C(O)C1F (stereo not given)	> 100	> 100				> 100		> 100				> 100		> 100 µM		> 100	> 100	> 100	> 100	> 100
OCCN(CCO)c1ncnc2c1sc(=S)n2-c1ccccc1		> 100				> 100		> 100				> 100		> 100 µM		> 100		> 100		> 100

Compound	GI50 [1] [µM]	TGI [1] [µM]	GI50 [2] [µM]	TGI [2] [µM]	GI50 [3] [µM]	TGI [3] [µM]	GI50 [4] [µM]	TGI [4] [µM]	GI50 [5] [µM]	TGI [5] [µM]	GI50 [6] [µM]	TGI [6] [µM]	GI50 [7] [µM]	TGI [7]	GI50 [8] [µM]	TGI [8] [µM]	GI50 [9] [µM]	TGI [9] [µM]	GI50 [10] [µM]	TGI [10] [µM]
O=c1c2ccccc2c(=O)c2c1sc1c(=O)c3ccc(O)cc3c(=O)c12	2.59	10.3	0.33	0.973			1.04	7.62	0.174	0.312	1.34	3.66	2.39	6.01 µM	0.178	0.361	0.651	3.9		
O=c1/c(=C/c2ccc3c(c2)OCO3)sc2nnc(Cc3ccccc3)n12		> 100				> 100		> 100				> 100				> 100		> 100		> 100
CC1(C)Oc2ccccc2N2O[C@@H]3C(=O)N(c4ccccc4)C(=O)[C@@H]3C21c1ccccc1 (stereo not given in full)		> 100				93.2		> 100				> 100		68.5 µM		32.2		59.7		> 100
Cc1cc2c(-c3nc4ccccn4c3NC34CC5CC(CC(C5)C3)C4)c(O)c(O)cc2c(O)c1-c1c(C)cc2c(-c3nc4ccccn4c3NC34CC5CC(CC(C5)C3)C4)c(O)c(O)cc2c1O	0.115	> 25	0.85	16.2	0.613	3.54	0.239	6.78			0.454	> 25	0.788	> 25 µM	0.262	2.78	0.0889	6.22	0.0903	2.1
Cc1cc(N(CCC#N)CCC#N)ccc1/C=C/C(=O)Nc1ccccc1Cl		> 100				> 100		> 100				> 100		> 100 µM		> 100		> 100		> 100
Cc1nnc(N=Nc2c(O)[nH]c3ccccc23)[nH]c1=O				> 100		> 100		> 100		> 100		> 100		> 100 µM		> 100		> 100		> 100
CCOc1ccccc1NC(=O)CCC(=O)NN		> 100				> 100		> 100						> 100 µM		> 100		> 100		> 100
O=C(O)C(O)c1ccc(F)cc1 (stereo not given)				> 100		> 100		> 100		> 100		> 100		> 100 µM		> 100		> 100		> 100
CN1C(=O)CC2(C)c3cc(C=O)ccc3N(C)C12 (stereo not given)		> 100				> 100		> 100				> 100		> 100 µM		> 100		> 100		> 100
CCOC(=O)c1cc(C(=O)O)c(=O)n2c1[nH]c1ccccc12		> 100				> 100		> 100				> 100		> 100 µM		> 100		> 100		> 100
COc1cc2c(c(OC)c1OC)-c1ccc(SC)c(=O)cc1[C@@H](NC(=O)c1ccc(F)cc1)CC2		> 100				< 0.01	< 0.01	16.8			< 0.01	> 100	< 0.01	0.0891 µM and < 0.01 µM	< 0.01		< 0.01	< 0.01		
C=CCN(N=O)C(=O)ON1C(=O)CCC1=O		> 100				> 100		> 100				> 100		> 100 µM		> 100		> 100		> 100
COc1ccccc1-c1nccc(COc2ccccc2C[C@@H](Oc2ncnc3sc(-c4ccc(F)cc4)c(-c4ccc(OCCN5CCN(C)CC5)c(Cl)c4C)c23)C(=O)O)n1	0.804	> 35.7	0.515	3.29			3.69	17.5	5.84	13.9	1.32	5.03	2.65	7.09 µM	1.89	3.91	2.43	6.55	2.09	5.84
c1cc2ccc1C1NCCCN1CCN1CCCNC1c1ccc(cc1)C1NCCCN1CCN1CCCNC21 (stereo not given)		> 100				97.9		> 100				> 100		> 100 µM		> 100		> 100		> 100
Cc1cc(Nc2cc(N3CCN(C)CC3)nc(C#Cc3ccccc3)n2)n[nH]1	6.89	> 69.5	1.74	6.22			3.82	16.8	4.18	18.2	11	23.4	2.02	8.08 µM	3.39	16.8	1.4	12.7	2.07	13
O=C(/C(=N/Nc1cn[nH]c(=O)c1Cl)c1ccccc1)c1ccccc1		> 100				77.2				54.3		83.1		59.1 µM		> 100		99.1		
C/C(=N\O)[C@H]1CC[C@@]2(C)[C@@H]3CC[C@H]4C(C)(C)/C(=N/O)CC[C@@]45CC35CC[C@]12C (stereo not given in full)			2.23	7.54	> 16.7	> 16.7	4.16	14.1	2.85	6.2	5.66	> 16.7	5.56	> 16.7 µM			2.45	5.77	5.05	> 16.7
CCC1(Cl)C(=O)NC(=O)N(C2CC(O)C(CO)O2)C1N=[N+]=[N-] (stereo not given)		> 100				> 100		> 100				> 100		> 100 µM		> 100				> 100
O=C(O)C(Cc1c[nH]c2ccccc12)N1C(=O)c2ccccc2C1=O (stereo not given)				> 100		> 100		> 100		> 100		> 100		> 100 µM		> 100		> 100		> 100
